# In patent US20150104399A1, “PREVENTION OF FIBROBLAST COLLAPSE” (Biocogent, LLC, priority 2012, published 2015):
# Columns and labels:
# [1] = test system: skin fibroblasts; experiment: Viability of fibroblasts exposed to BSA reacted with ribose, resazurin dye; format: cell-based; settings: positive control for preventing glycation; human dermal fibroblasts exposed to glycated protein
# Protocol: In some examples discussed herein, comparison was made between the skin care compositions of the present technology and those containing pyridoxamine as a positive control. It was shown that a population of human dermal fibroblasts (HDFs) exposed to glycated proteins is generally expected to collapse. Specifically, glycated protein (such as bovine serum albumin, BSA), when added to normally cultured skin fibroblasts at a concentration in the range of 2 to 6 mg/mL, caused cell death within approximately 18 to 36 hours. […] A series of tests was conducted to evaluate the skin care compositions of the present technology, to see whether they could prevent the target protein of BSA from being toxic to skin fibroblasts. This was done by first reacting BSA with the sugar (ribose) in a buffered saline solution. Some of the reaction mixtures also contained pyridoxamine (a drug used here as the positive control known to prevent glycation) or the skin care compositions of the present technology. […] After exposure of the cells to these solutions at 37° C. for 24 hours, the viability of the cells was determined by adding a dye (resazurin) to the wells and incubating at 37° C. for another hour. […] The color change in the wells was then measured as optical density on a plate-reading spectrophotometer. […]
# [2] = test system: skin fibroblasts; experiment: Viability and attachment of confluent fibroblasts exposed to BSA reacted with ribose, neutral red dye, microscopy; format: cell-based, human; settings: BSA reacted with 100 millimolar ribose in presence of 10 millimolar pyridoxamine; 2 mg/mL BSA, 16 hours; FIG. 6
# Protocol: A further series of tests was conducted to evaluate the skin care compositions of the present technology, to see whether they could prevent the target protein of BSA from being toxic to skin fibroblasts. This was done by first reacting BSA with the glycating sugar (ribose) in a buffered saline solution. Some of the reaction mixtures also contained pyridoxamine (a drug used here as the positive control known to prevent glycation) or the skin care compositions of the present technology. For this test, incubation of the sterile reaction mixtures was for two days at a temperature of about 45° C. After that, the reaction mixtures were extensively dialyzed against deionized water, removing all of the small molecules (ribose, salts, etc.) from the mixtures, leaving just the BSA. The resulting BSA solutions were then lyophilized (freeze-dried) to remove water, and the residues of BSA were resolubilized in a buffered saline solution. After measuring the protein concentration of each of these solutions, they were each added to a cell culture dish containing confluent fibroblasts to achieve a final BSA concentration of 2 milligrams per milliliter. After exposure of the cells to these solutions at 37° C. for 16 hours, the viability of the cells was determined by adding a dye (neutral red) to the plates and incubating at 37° C. for another hour. […]
smiles,measurement,setting,value
Cc1ncc(CO)c(CN)c1O [pyridoxamine],effect on fibroblast collapse,[1],mitigated some of the collapse
same,"health of fibroblasts (neutral red uptake, attachment)",[2],have remained healthy
